Experimental data as given in patent US9969692B2, “Process for preparing quinoline derivatives” (Exelixis, Inc., priority 2011, dated 2018).

Test: Gravimetric vapor sorption (GVS) moisture adsorption desorption isotherm
Type: physicochemical
Conditions: 25° C. and 90% humidity
Procedure: A gravimetric vapor sorption (GVS) study was run using a standard procedure. Samples were run on a dynamic vapor sorption analyzer (Surface Measurement Systems) running DVSCFR software. Sample sizes were typically 10 mg. A moisture adsorption desorption isotherm was performed as outlined below. The standard isotherm experiment, performed at 25° C., is a two-cycle run, starting at 40% RH (relative humidity), increasing humidity to 90% RH, decreasing humidity to 0% RH, increasing humidity again to 90% RH, and finally decreasing humidity to 0% RH in 10% RH intervals.

SMILES: COc1cc2c(Oc3ccc(NC(=O)C4(C(=O)Nc5ccc(F)cc5)CC4)cc3F)ccnc2cc1OCCCN1CCOCC1.O [crystalline Compound 1, N-[3-fluoro-4-({6-(methyloxy)-7-[(3-morpholin-4-ylpropyl)oxy]quinolin-4-yl}oxy)phenyl]-N′-(4-fluorophenyl)cyclopropane-1,1-dicarboxamide crystalline hydrate]
- weight gain (GVS): 2.5%
